The target in data set [1] is T1, S. aureus SgtB (Staphylococcus aureus, UniProt Q99T05).
T1 sequence (Q99T05 1-269): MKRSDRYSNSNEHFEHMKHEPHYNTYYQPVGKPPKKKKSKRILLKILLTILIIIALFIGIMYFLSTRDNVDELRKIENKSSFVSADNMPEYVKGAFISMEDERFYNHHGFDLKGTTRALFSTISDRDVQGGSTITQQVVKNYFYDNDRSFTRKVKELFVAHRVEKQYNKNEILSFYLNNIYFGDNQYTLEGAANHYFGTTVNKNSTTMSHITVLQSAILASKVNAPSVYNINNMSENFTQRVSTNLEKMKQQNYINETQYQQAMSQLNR
It is filed as binding. The settings on record: for drop in FP (probe displacement) when used instead of moenomycin: detergent controls.

The conditions of data set [2]: background statement; cited from earlier work.
Data set [3] concerns the target T1, S. aureus SgtB. The data set is classed as biochemical.
The next data set addresses E. coli PBP1b (Escherichia coli, UniProt P02919). Briefly: in vitro PGT inhibition. The data set is classed as biochemical.

Chain of E. coli PBP1b (P02919 whole entry): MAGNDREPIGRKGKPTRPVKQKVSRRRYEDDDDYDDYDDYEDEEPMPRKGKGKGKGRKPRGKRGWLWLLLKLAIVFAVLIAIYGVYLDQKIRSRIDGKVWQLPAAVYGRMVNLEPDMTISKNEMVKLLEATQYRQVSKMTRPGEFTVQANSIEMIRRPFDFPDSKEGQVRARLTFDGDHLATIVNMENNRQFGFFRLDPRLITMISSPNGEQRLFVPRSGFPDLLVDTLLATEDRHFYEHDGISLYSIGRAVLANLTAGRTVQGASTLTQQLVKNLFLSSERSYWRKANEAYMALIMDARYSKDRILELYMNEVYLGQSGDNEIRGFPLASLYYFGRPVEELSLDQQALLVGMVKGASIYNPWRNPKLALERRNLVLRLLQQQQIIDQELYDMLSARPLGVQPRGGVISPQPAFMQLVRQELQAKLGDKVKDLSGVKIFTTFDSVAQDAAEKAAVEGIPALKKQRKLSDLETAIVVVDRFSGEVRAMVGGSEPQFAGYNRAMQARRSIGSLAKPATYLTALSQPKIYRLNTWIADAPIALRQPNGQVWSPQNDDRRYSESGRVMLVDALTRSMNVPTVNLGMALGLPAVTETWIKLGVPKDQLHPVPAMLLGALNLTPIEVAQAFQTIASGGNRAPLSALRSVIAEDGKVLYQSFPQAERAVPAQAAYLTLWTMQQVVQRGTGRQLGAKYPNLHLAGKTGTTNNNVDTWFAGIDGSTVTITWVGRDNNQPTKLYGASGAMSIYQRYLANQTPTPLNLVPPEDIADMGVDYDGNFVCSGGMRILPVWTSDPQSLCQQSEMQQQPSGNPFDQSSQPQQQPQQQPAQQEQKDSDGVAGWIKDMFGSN

For the molecule `CCCCCCCCCCCCO[C@@H]1O[C@H](CO)[C@@H](O[C@H]2O[C@H](CO)[C@@H](O)[C@H](O)[C@H]2O)[C@H](O)[C@H]1O` [dodecyl maltoside], the “drop in FP (probe displacement) when used instead of moenomycin” value at S. aureus SgtB [1] is “no significant drop in FP”.
As for moenomycin A [compound 1], in data set [2], the oral bioavailability entry was “poor oral bioavailability” and the serum half life entry is “long serum half life”. The Ki at S. aureus SgtB [1] (read-out: Ki, displacement of probe 2, probe 2 75 nM, S. aureus SgtB 0.2 μM) was found to be 640 nM. The “inhibition of enzyme (in words)” value against S. aureus SgtB [3] is on record as “low-nanomolar inhibition”. For the same molecule, the “inhibition of enzyme (in words)” value against E. coli PBP1b is on record as “low-nanomolar inhibition”.
For the molecule tween-20, the “drop in FP (probe displacement) when used instead of moenomycin” value at S. aureus SgtB [1] is listed as “no significant drop in FP”.

In general, Ki refers to the dissociation constant of the complex between target and ligand, obtained from inhibition or displacement.

The values are drawn from article PMC3634352 (Journal of the American Chemical Society, 2013).
